{"source": "ChEMBL document CHEMBL1141040", "about": "“Isolation, structure elucidation, preparation, and biological properties of neolambertellin” (Bioorg Med Chem Lett, 2005)", "tested_on": "Bipolaris oryzae", "assay": "Inhibitory concentration against hyphal germination of Cochlibolus miyabeanus", "type": "functional, organism-based"}
{"smiles": "Cc1cc2cc(O)c3c(O)cccc3c2oc1=O", "values": [{"measurement": "IC50", "result": 100, "unit": "mg/L"}]}
